One experiment deals with 22Rv1 cells. Nature of the experiment: Cell growth inhibition assay (CellTiter-Glo) in 22Rv1. The note with it: Homo sapiens, 22Rv1, 96 h, read-out: Cell Growth Inhibition (IC50) 22Rv1. It is filed as cell-based, human. The method, then:
Biological Assays. CBP/p300 degradation activity and cell growth inhibition were evaluated in the human prostate cancer cell line 22Rv1 (ATCC© CRL-2505™) purchased from the American Type Culture Collection (ATCC), Manassas, VA, and maintained and cultured in Dulbecco's Modified Eagle's medium (DMEM) containing 10% fetal bovine serum, 1 unit/ml of penicillin and 1 μg/ml of streptomycin. Cells with 3-8 passages after purchase were used in experiments.
Cell Growth Inhibition Assay Protocol. 22RV1 cells were seeded at a concentration of 4000 cells/well in 100 μl culture medium and 2 μl of test compound (final concentration start from 10 μM and 3 times dilution) into 96 well microplates (Corning 3903). The cell cultures were incubated for 96 h at +37° C. and 5% CO2. The plate and its contents were equilibrated to room temperature for approximately 30 minutes. 100 μl of CellTiter-Glo® 2.0 Reagent equal to the volume of cell culture medium present was added in each well. The contents were mixed for 2 minutes on an orbital shaker. The plate was allowed to incubate at room temperature for 10 minutes. The luminescence was recorded. The data was analyzed by Prism GraphPad 8.
Background: In ATP-based viability assays light output follows the ATP content of the culture.

For the next experiment, the system named is HL60. Nature of the experiment: Cell growth inhibition in HL60. It is filed as cell-based. Particulars: Homo sapiens.
Another experiment has as its target T1, CBP (Homo sapiens, UniProt Q92793).
T1 construct: endogenous in cells; host or cells: 22Rv1 (ATCC CRL-2505) human prostate cancer cells
Nature of the experiment: CBP degradation in 22Rv1 cells (5 h). It is filed as cell-based. Particulars: 22Rv1 cells, 5 h; for Dmax: 22Rv1, 5 h, read-out: CBP Degradation (22Rv1, 5 h) DCmax. An excerpt: Biological Assays. […] Cells with 3-8 passages after purchase were used in experiments.

Where [1] appears, read: HL-60, read-out: Cell Growth Inhibition (IC50) HL60.
Where [2] appears, read: HL-60, HL60 cells, read-out: Cell Growth Inhibition (IC50) HL60.

Read-outs that look alike come from different tables or passages of the source.

T1 sequence (Q92793 whole entry): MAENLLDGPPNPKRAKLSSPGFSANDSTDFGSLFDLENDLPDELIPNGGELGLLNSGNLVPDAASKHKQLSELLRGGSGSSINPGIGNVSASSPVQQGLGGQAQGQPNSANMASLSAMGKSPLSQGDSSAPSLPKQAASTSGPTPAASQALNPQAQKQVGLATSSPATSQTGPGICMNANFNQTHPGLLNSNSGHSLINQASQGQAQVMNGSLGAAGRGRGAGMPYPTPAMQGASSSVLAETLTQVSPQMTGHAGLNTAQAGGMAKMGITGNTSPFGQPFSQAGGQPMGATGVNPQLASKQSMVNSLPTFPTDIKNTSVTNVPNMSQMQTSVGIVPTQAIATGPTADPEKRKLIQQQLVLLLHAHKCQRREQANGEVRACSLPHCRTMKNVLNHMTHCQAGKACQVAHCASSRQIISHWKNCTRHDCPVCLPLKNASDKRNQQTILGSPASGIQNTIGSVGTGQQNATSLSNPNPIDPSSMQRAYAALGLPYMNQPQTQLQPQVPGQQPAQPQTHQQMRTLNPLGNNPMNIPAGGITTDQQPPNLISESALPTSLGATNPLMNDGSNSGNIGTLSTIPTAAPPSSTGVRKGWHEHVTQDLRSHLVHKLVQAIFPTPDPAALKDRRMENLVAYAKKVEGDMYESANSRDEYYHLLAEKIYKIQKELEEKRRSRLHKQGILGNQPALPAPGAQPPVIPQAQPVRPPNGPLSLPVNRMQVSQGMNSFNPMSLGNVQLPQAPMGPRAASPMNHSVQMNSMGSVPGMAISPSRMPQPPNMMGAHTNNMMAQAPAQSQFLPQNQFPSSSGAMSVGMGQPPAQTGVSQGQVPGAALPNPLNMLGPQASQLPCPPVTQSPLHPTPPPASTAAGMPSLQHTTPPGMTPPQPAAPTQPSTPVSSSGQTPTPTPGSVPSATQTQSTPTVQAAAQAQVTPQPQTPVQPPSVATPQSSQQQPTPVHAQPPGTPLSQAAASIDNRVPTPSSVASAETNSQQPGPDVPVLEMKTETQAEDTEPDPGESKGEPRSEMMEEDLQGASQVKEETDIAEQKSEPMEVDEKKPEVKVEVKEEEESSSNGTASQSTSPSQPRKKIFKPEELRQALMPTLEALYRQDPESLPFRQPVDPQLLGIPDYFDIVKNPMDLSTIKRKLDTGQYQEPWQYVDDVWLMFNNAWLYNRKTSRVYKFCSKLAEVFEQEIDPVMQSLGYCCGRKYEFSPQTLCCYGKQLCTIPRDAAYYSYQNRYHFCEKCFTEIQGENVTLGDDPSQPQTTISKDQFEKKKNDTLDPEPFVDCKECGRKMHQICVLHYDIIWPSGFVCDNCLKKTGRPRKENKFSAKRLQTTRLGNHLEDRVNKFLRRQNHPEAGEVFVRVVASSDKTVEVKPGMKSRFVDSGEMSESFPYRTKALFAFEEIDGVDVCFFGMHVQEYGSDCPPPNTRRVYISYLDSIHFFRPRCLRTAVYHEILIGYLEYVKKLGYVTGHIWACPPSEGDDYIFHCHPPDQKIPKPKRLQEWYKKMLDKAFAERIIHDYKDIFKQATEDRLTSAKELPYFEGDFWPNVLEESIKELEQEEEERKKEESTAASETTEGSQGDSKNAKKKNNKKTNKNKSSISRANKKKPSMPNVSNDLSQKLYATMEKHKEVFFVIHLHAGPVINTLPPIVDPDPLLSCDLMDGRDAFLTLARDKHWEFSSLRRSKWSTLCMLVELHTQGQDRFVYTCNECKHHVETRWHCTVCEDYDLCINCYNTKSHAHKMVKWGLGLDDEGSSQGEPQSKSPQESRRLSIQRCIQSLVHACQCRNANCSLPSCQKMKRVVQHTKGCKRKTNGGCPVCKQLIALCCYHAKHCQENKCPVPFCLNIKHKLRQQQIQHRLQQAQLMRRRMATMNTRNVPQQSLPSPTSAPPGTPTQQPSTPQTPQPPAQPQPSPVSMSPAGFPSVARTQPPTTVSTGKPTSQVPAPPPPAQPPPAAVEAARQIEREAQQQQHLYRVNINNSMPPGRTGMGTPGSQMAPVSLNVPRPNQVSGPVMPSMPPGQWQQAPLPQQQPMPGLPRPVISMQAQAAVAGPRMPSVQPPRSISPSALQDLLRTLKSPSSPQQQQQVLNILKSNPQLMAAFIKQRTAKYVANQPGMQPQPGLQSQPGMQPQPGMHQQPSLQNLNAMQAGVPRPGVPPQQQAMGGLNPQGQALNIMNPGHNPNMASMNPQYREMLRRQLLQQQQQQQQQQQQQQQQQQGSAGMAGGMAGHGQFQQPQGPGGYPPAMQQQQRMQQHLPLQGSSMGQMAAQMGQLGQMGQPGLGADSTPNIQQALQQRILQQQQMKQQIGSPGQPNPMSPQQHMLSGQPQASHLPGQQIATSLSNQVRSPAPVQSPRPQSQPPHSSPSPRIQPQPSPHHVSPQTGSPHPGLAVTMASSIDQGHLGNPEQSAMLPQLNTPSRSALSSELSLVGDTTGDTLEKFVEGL

For `CC(=O)N1CCc2c(c(N3CCCc4cc(-c5cnn(C)c5)c(C(F)F)cc43)nn2C[C@H]2CC[C@H](N3Cc4cc5c(cc4C3)C(=O)N(C3CCC(=O)NC3=O)C5=O)CC2)C1` (relative stereo) [CP-039, 6-(-4-((5-acetyl-3-(7-(difluoromethyl)-6-(1-methyl-1H-pyrazol-4-yl)-3,4-dihydroquinolin-1(2H)-yl)-4,5,6,7-tetrahydro-1H-pyrazolo[4,3-c]pyridin-1-yl)methyl)cyclohexyl)-2-(2,6-dioxopiperidin-3-yl)-6,7-dihydropyrrolo[3,4-f]isoindole-1,3(2H,5H)-dione], the IC50 – broadly, the concentration that inhibits the measured activity by half – in the experiment on 22Rv1 cells is < 1 µM; in the experiment with HL60 (setting [1]) it was < 0.1 µM.
Turning to `CC(=O)N1CCc2c(c(N3CCCc4cc(-c5cnn(C)c5)c(C(F)F)cc43)nn2C[C@H]2CC[C@@H](N3CCc4cc5c(cc4C3)C(=O)N(C3CCC(=O)NC3=O)C5=O)CC2)C1` (relative stereo) [CP-042, 6-(4-((5-acetyl-3-(7-(difluoromethyl)-6-(1-methyl-1H-pyrazol-4-yl)-3,4-dihydroquinolin-1(2H)-yl)-4,5,6,7-tetrahydro-1H-pyrazolo[4,3-c]pyridin-1-yl)methyl)cyclohexyl)-2-(2,6-dioxopiperidin-3-yl)-5,6,7,8-tetrahydro-1H-pyrrolo[3,4-g]isoquinoline-1,3(2H)-dione], the IC50 with 22Rv1 cells (22Rv1 cells, 96 h incubation) was < 1 µM. On CBP, the Dmax was > 90% and the DC50 (commonly the concentration at which degradation of the target reaches its halfway point) is < 0.01 µM. Besides, the IC50 in the experiment on HL60 (setting [2]) is < 0.1 µM.
As to `CC(=O)N1CCc2c(c(N3CCCc4cc(-c5cnn(C)c5)c(C(F)F)cc43)nn2[C@H]2CC[C@@H](CN3Cc4cc5c(cc4C3)C(=O)N(C3CCC(=O)NC3=O)C5=O)CC2)C1` (relative stereo) [CP-046, 6-((4-(5-acetyl-3-(7-(difluoromethyl)-6-(1-methyl-1H-pyrazol-4-yl)-3,4-dihydroquinolin-1(2H)-yl)-4,5,6,7-tetrahydro-1H-pyrazolo[4,3-c]pyridin-1-yl)cyclohexyl)methyl)-2-(2,6-dioxopiperidin-3-yl)-6,7-dihydropyrrolo[3,4-f]isoindole-1,3(2H,5H)-dione], the IC50 with 22Rv1 cells and with HL60 (setting [1]) was < 0.1 µM each time.
With `CC(=O)N1CCc2c(c(N3CCCc4cc(-c5cnn(C)c5)c(C(F)F)cc43)nn2C2CCN(C(=O)CN3CCc4cc5c(cc4C3)C(=O)N(C3CCC(=O)NC3=O)C5=O)CC2)C1` (stereo not drawn) [CP-001, 6-(2-(4-(5-acetyl-3-(7-(difluoromethyl)-6-(1-methyl-1H-pyrazol-4-yl)-3,4-dihydroquinolin-1(2H)-yl)-4,5,6,7-tetrahydro-1H-pyrazolo[4,3-c]pyridin-1-yl)piperidin-1-yl)-2-oxoethyl)-2-(2,6-dioxopiperidin-3-yl)-5,6,7,8-tetrahydro-1H-pyrrolo[3,4-g]isoquinoline-1,3(2H)-dione], in the experiment with 22Rv1 cells (22Rv1 cells, 96 h incubation), the IC50 was < 0.1 µM. Moreover, at CBP, the Dmax was > 90% and the DC50 is < 0.01 µM. For the same compound, in the experiment on HL60 (setting [2]), the IC50 was < 0.1 µM.
As to `CC(=O)N1CCc2c(c(N3CCCc4cc(-c5cnn(C)c5)c(C(F)F)cc43)nn2C2CCN(CC(=O)N3CCc4cc5c(cc4C3)C(=O)N(C3CCC(=O)NC3=O)C5=O)CC2)C1` (stereo not drawn) [CP-002, 6-(2-(4-(5-acetyl-3-(7-(difluoromethyl)-6-(1-methyl-1H-pyrazol-4-yl)-3,4-dihydroquinolin-1(2H)-yl)-4,5,6,7-tetrahydro-1H-pyrazolo[4,3-c]pyridin-1-yl)piperidin-1-yl)acetyl)-2-(2,6-dioxopiperidin-3-yl)-5,6,7,8-tetrahydro-1H-pyrrolo[3,4-g]isoquinoline-1,3(2H)-dione], the IC50 is < 10 µM in the experiment with 22Rv1 cells (22Rv1 cells, 96 h incubation) and < 1 µM in the experiment with HL60 (setting [2]). For the same compound, on CBP, the Dmax is > 90%. In addition, the DC50 on CBP was < 0.01 µM.
The like results for `CC(=O)N1CCc2c(c(N3CCCc4cc(-c5cnn(C)c5)c(C(F)F)cc43)nn2C2CCN(C(=O)CCN3CCc4cc5c(cc4C3)C(=O)N(C3CCC(=O)NC3=O)C5=O)CC2)C1` (stereo not drawn) [CP-003, 6-(3-(4-(5-acetyl-3-(7-(difluoromethyl)-6-(1-methyl-1H-pyrazol-4-yl)-3,4-dihydroquinolin-1(2H)-yl)-4,5,6,7-tetrahydro-1H-pyrazolo[4,3-c]pyridin-1-yl)piperidin-1-yl)-3-oxopropyl)-2-(2,6-dioxopiperidin-3-yl)-5,6,7,8-tetrahydro-1H-pyrrolo[3,4-g]isoquinoline-1,3(2H)-dione] were, in that order, < 10 µM, < 1 µM, > 50% and < 0.1 µM.
On to `CC(=O)N1CCc2c(c(N3CCCc4cc(-c5cnn(C)c5)c(C(F)F)cc43)nn2C2CCN(C(=O)CCCN3CCc4cc5c(cc4C3)C(=O)N(C3CCC(=O)NC3=O)C5=O)CC2)C1` (stereo not drawn) [CP-004, 6-(4-(4-(5-acetyl-3-(7-(difluoromethyl)-6-(1-methyl-1H-pyrazol-4-yl)-3,4-dihydroquinolin-1(2H)-yl)-4,5,6,7-tetrahydro-1H-pyrazolo[4,3-c]pyridin-1-yl)piperidin-1-yl)-4-oxobutyl)-2-(2,6-dioxopiperidin-3-yl)-5,6,7,8-tetrahydro-1H-pyrrolo[3,4-g]isoquinoline-1,3(2H)-dione], for which the IC50 was < 1 µM with 22Rv1 cells (22Rv1 cells, 96 h incubation) and < 1 µM with HL60 (setting [2]). Also, the Dmax at CBP was > 70%. The DC50 on CBP is < 0.01 µM.
In the case of `CC(=O)N1CCc2c(c(N3CCCc4cc(-c5cnn(C)c5)c(C(F)F)cc43)nn2C2CCN(C(=O)CN3Cc4cc5c(cc4C3)C(=O)N(C3CCC(=O)NC3=O)C5=O)CC2)C1` (stereo not drawn) [CP-005, 6-(2-(4-(5-acetyl-3-(7-(difluoromethyl)-6-(1-methyl-1H-pyrazol-4-yl)-3,4-dihydroquinolin-1(2H)-yl)-4,5,6,7-tetrahydro-1H-pyrazolo[4,3-c]pyridin-1-yl)piperidin-1-yl)-2-oxoethyl)-2-(2,6-dioxopiperidin-3-yl)-6,7-dihydropyrrolo[3,4-f]isoindole-1,3(2H,5H)-dione], the IC50 in the experiment on 22Rv1 cells and in the experiment on HL60 (setting [1]) was < 0.1 µM throughout.
As to `CC(=O)N1CCc2c(c(N3CCCc4cc(-c5cnn(C)c5)c(C(F)F)cc43)nn2C2CCC(N3Cc4cc5c(cc4C3)C(=O)N(C3CCC(=O)NC3=O)C5=O)CC2)C1` (stereo not drawn) [CP-037, 6-(4-(5-acetyl-3-(7-(difluoromethyl)-6-(1-methyl-1H-pyrazol-4-yl)-3,4-dihydroquinolin-1(2H)-yl)-4,5,6,7-tetrahydro-1H-pyrazolo[4,3-c]pyridin-1-yl)cyclohexyl)-2-(2,6-dioxopiperidin-3-yl)-6,7-dihydropyrrolo[3,4-f]isoindole-1,3(2H,5H)-dione], the IC50 in the experiment on 22Rv1 cells and with HL60 (setting [1]) was < 0.1 µM in each case.
On to `CC(=O)N1CCc2c(c(N3CCCc4cc(-c5cnn(C)c5)c(C(F)F)cc43)nn2C[C@H]2CC[C@@H](N3Cc4cc5c(cc4C3)C(=O)N(C3CCC(=O)NC3=O)C5=O)CC2)C1` (stereo partly drawn) [CP-040, 6-(4-((5-acetyl-3-(7-(difluoromethyl)-6-(1-methyl-1H-pyrazol-4-yl)-3,4-dihydroquinolin-1(2H)-yl)-4,5,6,7-tetrahydro-1H-pyrazolo[4,3-c]pyridin-1-yl)methyl)cyclohexyl)-2-(2,6-dioxopiperidin-3-yl)-6,7-dihydropyrrolo[3,4-f]isoindole-1,3(2H,5H)-dione], for which the IC50 in the experiment on 22Rv1 cells is < 1 µM; in the experiment with HL60 (setting [1]), < 0.1 µM.
The like results for `CC(=O)N1CCc2c(c(N3CCCc4cc(-c5cnn(C)c5)c(C(F)F)cc43)nn2C[C@H]2CC[C@H](CN3Cc4cc5c(cc4C3)C(=O)N(C3CCC(=O)NC3=O)C5=O)CC2)C1` (stereo partly drawn) [CP-043, 6-((4-((5-acetyl-3-(7-(difluoromethyl)-6-(1-methyl-1H-pyrazol-4-yl)-3,4-dihydroquinolin-1(2H)-yl)-4,5,6,7-tetrahydro-1H-pyrazolo[4,3-c]pyridin-1-yl)methyl)cyclohexyl)methyl)-2-(2,6-dioxopiperidin-3-yl)-6,7-dihydropyrrolo[3,4-f]isoindole-1,3(2H,5H)-dione] were, in that order, < 10 µM and < 1 µM.
For `CC(=O)N1CCc2c(c(N3CCCc4cc(-c5cnn(C)c5)c(C(F)F)cc43)nn2C2CCC(CCN3Cc4cc5c(cc4C3)C(=O)N(C3CCC(=O)NC3=O)C5=O)CC2)C1` (stereo not drawn) [CP-044, 6-(2-(4-(5-acetyl-3-(7-(difluoromethyl)-6-(1-methyl-1H-pyrazol-4-yl)-3,4-dihydroquinolin-1(2H)-yl)-4,5,6,7-tetrahydro-1H-pyrazolo[4,3-c]pyridin-1-yl)cyclohexyl)ethyl)-2-(2,6-dioxopiperidin-3-yl)-6,7-dihydropyrrolo[3,4-f]isoindole-1,3(2H,5H)-dione], the IC50 in the experiment with 22Rv1 cells and in the experiment on HL60 (setting [1]) was < 0.1 µM in each case.
Take `CC(=O)N1CCc2c(c(N3CCCc4cc(-c5cnn(C)c5)c(C(F)F)cc43)nn2[C@H]2CC[C@H](CN3Cc4cc5c(cc4C3)C(=O)N(C3CCC(=O)NC3=O)C5=O)CC2)C1` (stereo partly drawn) [CP-047, 6-((4-(5-acetyl-3-(7-(difluoromethyl)-6-(1-methyl-1H-pyrazol-4-yl)-3,4-dihydroquinolin-1(2H)-yl)-4,5,6,7-tetrahydro-1H-pyrazolo[4,3-c]pyridin-1-yl)cyclohexyl)methyl)-2-(2,6-dioxopiperidin-3-yl)-6,7-dihydropyrrolo[3,4-f]isoindole-1,3(2H,5H)-dione]: the IC50 in the experiment with 22Rv1 cells and with HL60 (setting [1]) was < 0.1 µM in each case.
